# Assay results as given in US4260682A, “High sensitivity assays for angiotensin converting enzyme” (priority 1979, dated 1981).
# Peptide text beside a SMILES is read from it. * marks the point of attachment. Bz = O=C(c1ccccc1)*
# Key:
# [1] = system: enzyme isolated from hog lung (ACE); details: cited from earlier work
# [2] = system: ACE; assay: Sulfate and chloride effects on ACE catalysed hydrolysis (general description); assay type: biochemical
# Source text: An assay for ACE, using HipHisLeu as substrate, is herewith described. The assay is more sensitive than any heretofore disclosed using HipHisLeu as substrate. Maximum sensitivity is achieved by the inclusion of sulfate ions, preferably as sodium sulfate, in the reaction mixture. When 0.1 M NaCl is present in the reaction mixture, sulfate ions are stimulatory from 0.1 M to at least 1.1 M. Maximum stimulation occurs in the range from 0.75 M to 1.1 M Na2 SO4.
# (§1) An even more sensitive assay for ACE activity has been developed using the novel compound ^3 H-benzoylPheAlaPro as substrate. This new substrate can be used to assay ACE in human urine in incubations as short as 15 minutes. The response of this substrate to ions is strikingly different from the response of HipHisLeu. […] This difficulty has been solved by the proper choice of extracting solvent. While a variety of organic solvents may be suitable for the extraction step, it is preferred to employ toluene. Approximately 88% of ^3 H-benzoylPhe enters the toluene phase while only 6% of the unhydrolyzed substrate enters the toluene phase, when toluene and the acidified reaction mixture are in approximately equal volumes at room temperatures.
# (§2) The enzyme is active over a broad pH range with a maximum around pH 8.0, but is at least about 50% active in the range pH 7.0-pH 8.8, for both HipHisLeu and benzoylPheAlaPro. Although the enzyme is active in a variety of buffer systems known in the art, it is preferred for convenience, when using benzoylPheAlaPro as substrate, to conduct the assays in 0.05 M Hepes buffer, pH 8.0 containing 0.15 M sodium chloride. Detailed protocols for carrying out the assay are given in the examples. […] The preferred concentration range is 1×10^-9 M to 7×10^- 5 M.
# [3] = system: ACE from rabbit lung; details: HipHisLeu as substrate; cited from earlier work
# [4] = Extraction from the acidified reaction mixture into organic solvent; assay type: physicochemical; details: toluene and acidified reaction mixture in approximately equal volumes, room temperature
# Protocol: as §1
# [5] = biological target: T1, Guinea pig urinary ACE (Cavia porcellus, UniProt H0UWL7); assay: Sulfate and chloride effects on ACE catalysed substrate hydrolysis; assay type: biochemical; details: 0.05 Hepes, pH 8.0, 0.15M HCl
# T1 sequence (H0UWL7 33-1302): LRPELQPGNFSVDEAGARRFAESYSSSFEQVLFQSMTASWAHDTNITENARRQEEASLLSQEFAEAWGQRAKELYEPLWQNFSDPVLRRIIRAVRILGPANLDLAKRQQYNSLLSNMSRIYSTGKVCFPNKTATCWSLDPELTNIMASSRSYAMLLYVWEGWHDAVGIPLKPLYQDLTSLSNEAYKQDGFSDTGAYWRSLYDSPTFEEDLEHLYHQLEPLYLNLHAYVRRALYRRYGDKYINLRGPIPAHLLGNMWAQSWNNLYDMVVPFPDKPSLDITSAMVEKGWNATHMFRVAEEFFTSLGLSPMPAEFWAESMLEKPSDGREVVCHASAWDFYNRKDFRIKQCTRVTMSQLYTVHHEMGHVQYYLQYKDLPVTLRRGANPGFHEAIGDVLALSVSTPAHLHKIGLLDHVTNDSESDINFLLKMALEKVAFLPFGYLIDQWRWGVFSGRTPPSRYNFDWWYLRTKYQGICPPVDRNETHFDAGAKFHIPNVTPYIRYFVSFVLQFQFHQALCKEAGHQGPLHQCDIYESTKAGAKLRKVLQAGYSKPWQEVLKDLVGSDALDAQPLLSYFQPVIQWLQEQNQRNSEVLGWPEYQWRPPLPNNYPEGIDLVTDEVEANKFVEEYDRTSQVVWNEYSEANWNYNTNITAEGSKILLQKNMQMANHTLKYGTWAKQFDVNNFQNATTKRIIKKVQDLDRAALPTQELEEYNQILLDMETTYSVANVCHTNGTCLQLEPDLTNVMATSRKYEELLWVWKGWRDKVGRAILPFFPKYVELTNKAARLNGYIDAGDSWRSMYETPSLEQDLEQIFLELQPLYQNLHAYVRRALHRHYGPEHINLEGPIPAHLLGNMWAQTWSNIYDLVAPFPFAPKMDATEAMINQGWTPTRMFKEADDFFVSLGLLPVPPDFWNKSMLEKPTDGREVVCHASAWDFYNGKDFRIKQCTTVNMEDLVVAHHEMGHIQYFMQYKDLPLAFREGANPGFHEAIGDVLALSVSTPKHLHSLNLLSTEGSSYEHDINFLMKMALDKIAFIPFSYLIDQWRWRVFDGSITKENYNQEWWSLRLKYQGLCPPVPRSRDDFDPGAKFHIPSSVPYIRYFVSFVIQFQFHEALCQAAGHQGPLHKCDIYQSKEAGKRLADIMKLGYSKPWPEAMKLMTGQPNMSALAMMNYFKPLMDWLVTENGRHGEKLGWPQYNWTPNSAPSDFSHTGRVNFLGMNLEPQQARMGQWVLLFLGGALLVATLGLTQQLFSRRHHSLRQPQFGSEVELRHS
# [6] = biological target: ACE (Homo sapiens, UniProt P12821); assay: Comparison of sensitivity of ACE radioassays; assay type: biochemical
# Chain of ACE (Homo sapiens, UniProt P12821) (P12821 30-1306, species assumed): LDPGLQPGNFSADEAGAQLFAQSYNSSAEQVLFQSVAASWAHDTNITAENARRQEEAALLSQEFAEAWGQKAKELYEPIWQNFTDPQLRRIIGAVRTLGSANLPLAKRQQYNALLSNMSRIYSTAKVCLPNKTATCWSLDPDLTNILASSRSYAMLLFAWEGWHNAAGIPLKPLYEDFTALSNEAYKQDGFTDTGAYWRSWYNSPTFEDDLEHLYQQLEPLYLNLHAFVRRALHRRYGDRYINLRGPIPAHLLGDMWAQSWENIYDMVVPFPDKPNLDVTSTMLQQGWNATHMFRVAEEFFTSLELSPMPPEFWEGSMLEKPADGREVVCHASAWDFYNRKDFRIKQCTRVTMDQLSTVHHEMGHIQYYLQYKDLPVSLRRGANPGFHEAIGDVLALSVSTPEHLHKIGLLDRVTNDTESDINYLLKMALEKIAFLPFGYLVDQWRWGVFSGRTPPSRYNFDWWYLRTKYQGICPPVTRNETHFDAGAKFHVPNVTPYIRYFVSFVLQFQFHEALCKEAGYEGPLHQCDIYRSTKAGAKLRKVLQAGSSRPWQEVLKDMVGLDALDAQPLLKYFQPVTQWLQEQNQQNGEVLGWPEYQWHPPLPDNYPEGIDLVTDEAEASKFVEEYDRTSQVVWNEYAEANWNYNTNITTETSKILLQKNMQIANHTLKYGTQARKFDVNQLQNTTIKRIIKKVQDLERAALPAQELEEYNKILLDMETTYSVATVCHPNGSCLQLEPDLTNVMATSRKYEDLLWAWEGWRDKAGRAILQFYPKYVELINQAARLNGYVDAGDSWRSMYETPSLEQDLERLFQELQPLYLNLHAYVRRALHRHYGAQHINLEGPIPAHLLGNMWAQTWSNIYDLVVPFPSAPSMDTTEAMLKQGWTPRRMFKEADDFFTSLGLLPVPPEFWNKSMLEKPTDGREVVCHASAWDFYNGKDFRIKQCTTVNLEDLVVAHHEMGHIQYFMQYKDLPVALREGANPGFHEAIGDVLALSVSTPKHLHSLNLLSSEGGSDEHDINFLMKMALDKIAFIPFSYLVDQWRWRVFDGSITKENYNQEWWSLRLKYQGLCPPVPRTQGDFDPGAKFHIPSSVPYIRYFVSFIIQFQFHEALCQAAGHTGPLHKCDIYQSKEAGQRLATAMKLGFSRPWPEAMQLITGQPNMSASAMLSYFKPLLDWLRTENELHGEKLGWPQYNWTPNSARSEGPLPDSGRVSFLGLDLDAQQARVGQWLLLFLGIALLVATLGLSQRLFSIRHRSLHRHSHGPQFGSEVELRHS
# Source text: A comparison of the sensitivity of the disclosed assay methods with each other and with prior art assays may be made by considering assays which depend upon measuring the radioactivity of the remnant reaction product. A prior art assay of this type, using ^3 H-HipGlyGly as substrate has been described (Ryan and Chung, supra). Of the two assays disclosed herein, the sulfate stimulated hydrolysis of ^3 H-HipHisLeu is approximately 20 times more sensitive, and the ^3 H-benzoylPheAlaPro assay is about 10 times more sensitive still. The latter is therefore approximately 200 times more sensitive than the assay using ^3 H-HipGlyGly.
# [7] = system: ACE; assay: pH dependence of ACE activity; assay type: biochemical
# Source text: as §2
# [8] = biological target: T2, Guinea pig serum ACE (Cavia porcellus, UniProt H0UWL7); assay: Kinetics of benzoyl-Phe-Ala-Pro hydrolysis; details: for V (reaction velocity): 0.05 M Hepes, pH 8.0, 0.15 M NaCl, 37° C., serum 1:1000
# T2 sequence (H0UWL7 33-1234): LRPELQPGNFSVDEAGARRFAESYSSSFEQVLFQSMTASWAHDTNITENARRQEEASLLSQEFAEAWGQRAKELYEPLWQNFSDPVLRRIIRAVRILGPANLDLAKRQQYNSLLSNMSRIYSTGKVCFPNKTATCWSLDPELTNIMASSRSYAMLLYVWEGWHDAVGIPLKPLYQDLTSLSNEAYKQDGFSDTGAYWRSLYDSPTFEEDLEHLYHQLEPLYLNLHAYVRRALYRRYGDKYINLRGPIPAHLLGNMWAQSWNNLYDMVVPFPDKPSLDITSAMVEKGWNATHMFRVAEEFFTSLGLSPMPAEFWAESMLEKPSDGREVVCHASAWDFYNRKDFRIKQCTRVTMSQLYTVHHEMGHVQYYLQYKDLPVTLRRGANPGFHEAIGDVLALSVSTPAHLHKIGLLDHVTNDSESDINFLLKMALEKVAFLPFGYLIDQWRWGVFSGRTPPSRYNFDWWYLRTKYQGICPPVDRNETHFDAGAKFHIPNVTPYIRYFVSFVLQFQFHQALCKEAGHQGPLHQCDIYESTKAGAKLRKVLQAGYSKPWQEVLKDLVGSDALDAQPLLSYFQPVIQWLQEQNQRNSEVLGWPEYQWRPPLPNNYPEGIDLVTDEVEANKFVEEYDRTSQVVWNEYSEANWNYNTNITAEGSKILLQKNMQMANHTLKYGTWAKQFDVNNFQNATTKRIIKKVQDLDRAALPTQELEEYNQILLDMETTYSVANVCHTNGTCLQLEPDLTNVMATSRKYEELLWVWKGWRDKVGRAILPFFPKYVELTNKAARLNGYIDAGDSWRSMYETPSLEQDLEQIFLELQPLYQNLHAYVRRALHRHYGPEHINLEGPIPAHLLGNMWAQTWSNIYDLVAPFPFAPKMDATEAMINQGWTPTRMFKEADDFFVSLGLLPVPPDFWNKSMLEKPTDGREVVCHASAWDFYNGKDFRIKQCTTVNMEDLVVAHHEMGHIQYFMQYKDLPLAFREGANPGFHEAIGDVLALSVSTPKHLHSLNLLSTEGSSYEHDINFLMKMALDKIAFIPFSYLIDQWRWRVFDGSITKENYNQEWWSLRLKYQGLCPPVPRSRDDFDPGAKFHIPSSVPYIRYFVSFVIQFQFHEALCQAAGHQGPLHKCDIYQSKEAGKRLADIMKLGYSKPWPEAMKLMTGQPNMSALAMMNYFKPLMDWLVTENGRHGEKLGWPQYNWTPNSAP
# Protocol: Kinetics of Benzoyl-Phe-Ala-Pro Hydrolysis
# The apparent Km for the ACE catalyzed hydrolysis of benzoyl-Phe-Ala-Pro was measured in the following manner. […] Guinea pig serum was diluted 1:1000 to provide the enzyme. A mixture of 50 μl diluted serum and 50 μl of substrate, diluted in the reaction buffer to provide the appropriate substrate concentration for each experiment, was incubated at 37° C. for 10 minutes. At the end of the incubation, 1.0 ml of 0.1 M HCl was added to stop the reaction. The reaction mixture was then extracted with 1.0 ml toluene, and a 0.5 ml aliquot of the toluene phase was counted in a scintillation counter.
# [9] = biological target: T2, Guinea pig serum ACE; assay: Kinetics of (sulfate-stimulated) HipHisLeu hydrolysis; assay type: biochemical; details: 0.05 M Hepes, pH 8.0, 0.1 M NaCl, 0.75 M Na2 SO4; Lineweaver and Burke plot
# Protocol: Kinetics of Sulfate-Stimulated HipHisLeu Hydrolysis
# In each assay, 50 μl of Guinea pig serum diluted 1-20 (v/v) in the reaction buffer was mixed with 50 μl of buffer containing sufficient ^3 H-HipHisLeu to provide approximately 100,000 cpm total, together with sufficient unlabeled HipHisLeu to produce the desired substrate concentrations, as indicated in Table 2. […] The reaction mixture was then extracted with 1 ml ethyl acetate. 500 μl of the ethyl acetate fraction was sampled and counted in a scintillation counter.
# [10] = sulfate ion 0.6 M, 0.1 M chloride, pH 8
compound,measurement,setting,value
O=C(O)CNC(=O)CNC(=O)CNC(=O)c1ccccc1 [HipGlyGly] (Bz-Gly-Gly-Gly-OH),hydrolysis in the absence of NaCl,[1]; Na2 SO4 0.001 M to 0.6 M,no hydrolysis
same,decrease of Km,[1]; [10],about 15%
same,increase of Vmax,[1]; [10],about 5 fold
same,dependence of hydrolysis on added chloride,[2]; sulfate present,remains dependent upon the presence of added chloride for activity
[Cl-].[Cl-].[Mg+2] [MgCl2],ability to meet the chloride requirement,[3],could be met
"O=S(=O)([O-])[O-].[Na+].[Na+] [Na2 SO4, sodium sulfate]",ability to meet the chloride requirement,[3],not
same,reaction rate vs. buffer containing 0.1 M NaCl and lacking Na2 SO4,"[2]; 0.9 M to 1.2 M Na2 SO4, no added NaCl, 0.05 M Hepes, pH 8.0, HipHisLeu",faster
same,stimulation by sodium sulfate,[2]; ^3 H-benzoylPheAlaPro as substrate,not stimulatory
"[Cl-].[Na+] [NaCl, sodium chloride]",effect of NaCl on reaction velocity of ^3 H-benzoylPheAlaPro,[2]; 0.01 M added NaCl,increases reaction velocity
same,increase of apparent reaction velocity of ^3 H-benzoylPheAlaPro,[2]; 0.05 M added sodium chloride,approximately 3 fold
same,effect on ACE catalyzed hydrolysis of HipHisLeu,[2]; NaCl 0.75 to 1.1 M,seriously inhibits
same,further increase of reaction velocity of ^3 H-benzoylPheAlaPro,"[2]; additional sodium chloride, up to 0.5 M",little further increase
[3H]c1ccc(C(=O)N[C@@H](Cc2ccccc2)C(=O)O)cc1 [^3 H-benzoylPhe],fraction entering the toluene phase,[4],Approximately 88%
"C[C@H](NC(=O)[C@H](Cc1ccccc1)NC(=O)c1ccccc1)C(=O)N1CCC[C@H]1C(=O)O [benzoylPheAlaPro, benzoyl-Phe-Ala-Pro] (Bz-Phe-Ala-Pro-OH)","Reaction Velocity, Per Cent of Substrate Hydrolyzed in 10 minutes",[5]; Na2 SO4 0 M,4.4 Per Cent
same,"Reaction Velocity, Per Cent of Substrate Hydrolyzed in 10 minutes",[5]; Na2 SO4 0.1 M,5.0 Per Cent
same,"Reaction Velocity, Per Cent of Substrate Hydrolyzed in 10 minutes",[5]; Na2 SO4 0.2 M,4.45 Per Cent
same,"Reaction Velocity, Per Cent of Substrate Hydrolyzed in 10 minutes",[5]; Na2 SO4 0.3 M,4.85 Per Cent
same,"Reaction Velocity, Per Cent of Substrate Hydrolyzed in 10 minutes",[5]; Na2 SO4 0.5 M,5.6 Per Cent
same,sensitivity relative to the sulfate-stimulated HipHisLeu assay,[6],ten to twenty
same,pH of maximum activity,[7],~8.0 pH
same,activity of enzyme (relative to maximum),[7]; range pH 7.0-pH 8.8,at least 50%
same,1/V,[8]; BenzPheAlaPro 1.0 μM,1.50 pmole^-1 · min .multi
same,V (reaction velocity),[8]; BenzPheAlaPro 1.0 μM,0.67 pmol/min/mL
same,1/V,[8]; BenzPheAlaPro 5.0 μM,0.48 pmole^-1 · min .multi
same,V (reaction velocity),[8]; BenzPheAlaPro 5.0 μM,2.08 pmol/min/mL
same,1/V,[8]; BenzPheAlaPro 10.0 μM,0.24 pmole^-1 · min .multi
same,V (reaction velocity),[8]; BenzPheAlaPro 10.0 μM,4.17 pmol/min/mL
same,1/V,[8]; BenzPheAlaPro 66.7 μM,0.11 pmole^-1 · min .multi
same,V (reaction velocity),[8]; BenzPheAlaPro 66.7 μM,9.09 pmol/min/mL
same,sensitivity of Km to the presence of sulfate,[8]; sulfate present,relatively insensitive to the presence of sulfate
^3 H-HipHisLeu,sensitivity relative to the assay using ^3 H-HipGlyGly,"[6]; radioactivity of remnant product, HipHisLeu assay sulfate stimulated",approximately 20 times
same,Km,[9],177 µM
